Test results: the NIST ThermoML archive (doi:10.1021/je034222z)

OCCC(F)(F)C(F)(F)C(F)(F)C(F)(F)C(F)(F)C(F)(F)C(F)(F)C(F)(F)F [1-decanol, 3,3,4,4,5,5,6,6,7,7,8,8,9,9,-heptadecafluoro]
Details | vapor or sublimation pressure [kPa]
294.1 K, Crystal, Transpiration method | 0.003

Details | Normal melting temperature [°C] | vapor or sublimation pressure [kPa]
357.15 K, Liquid | – | 0.708
369.15 K, Liquid | – | 1.465
380.15 K, Liquid | – | 2.774
392.15 K, Liquid | – | 4.91
397.15 K, Liquid | – | 5.1
403.15 K, Liquid | – | 8.284
415.15 K, Liquid | – | 13.8
421.15 K, Liquid | – | 15.27
428.15 K, Liquid | – | 22.75
430.15 K, Liquid | – | 23.4
439.15 K, Liquid | – | 34.45
440.15 K, Liquid | – | 32
445.15 K, Liquid | – | 35.67
452.15 K, Liquid | – | 51.67
463.15 K, Liquid | – | 72.34
468.15 K, Liquid | – | 75.75
474.15 K, Liquid | – | 100.61
498.15 K, Liquid | – | 162.1
Crystal, visual observation | 49.0 | –
